# Experiments:
# Format in all cases: functional
# Splenocyte [1] = assay: Immunomodulatory effect in mouse splenocyte assessed as increase in ConA-induced IFN-gamma release at 5 uM by lymphoproliferation test
# Splenocyte [2] = assay: Immunomodulatory effect in mouse splenocyte assessed as increase in ConA-induced IFN-gamma release at 25 uM by lymphoproliferation test
# Splenocyte [3] = assay: Immunomodulatory effect in mouse splenocyte assessed as increase in ConA-induced IFN-gamma release at 100 uM by lymphoproliferation test
# Splenocyte [4] = assay: Immunomodulatory effect in mouse splenocyte assessed as increase in ConA-induced IL2 release at 5 uM by lymphoproliferation test
# Splenocyte [5] = assay: Immunomodulatory effect in mouse splenocyte assessed as increase in ConA-induced IL2 release at 25 uM by lymphoproliferation test
# Splenocyte [6] = assay: Immunomodulatory effect in mouse splenocyte assessed as increase in ConA-induced IL2 release at 100 uM by lymphoproliferation test
structure (smiles),measurement,setting,value
C=C(C)[C@@H]1CC[C@]2(C(=O)O[C@@H]3O[C@H](CO[C@@H]4O[C@H](CO)[C@@H](O[C@@H]5O[C@@H](C)[C@H](O)[C@@H](O)[C@H]5O)[C@H](O)[C@H]4O)[C@@H](O)[C@H](O)[C@H]3O)CC[C@]3(C)[C@H](CC[C@@H]4[C@@]5(C)CC[C@@H](O)[C@@](C)(C(=O)O)[C@@H]5CC[C@]43C)[C@@H]12 [ACANKOREOSIDE A],Activity,Splenocyte [1],2.89 pg/mL
same,Activity,Splenocyte [2],4.62 pg/mL
same,Activity,Splenocyte [3],4.57 pg/mL
same,Activity,Splenocyte [4],17.04 pg/mL
same,Activity,Splenocyte [5],24.87 pg/mL
same,Activity,Splenocyte [6],29.78 pg/mL
C=C(C)[C@@H]1CC[C@]2(C(=O)O[C@@H]3O[C@H](CO[C@@H]4O[C@H](CO)[C@@H](O[C@H]5O[C@@H](C)[C@H](O)[C@@H](O)[C@H]5O)[C@H](O)[C@H]4O)[C@@H](O)[C@H](O)[C@H]3O)CC[C@]3(C)[C@H](C[C@@H](O)[C@@H]4[C@@]5(C)CC[C@@H](O)[C@@](C)(C=O)[C@@H]5CC[C@]43C)[C@@H]12 [ACANKOREOSIDE D],Activity,Splenocyte [1],3.69 pg/mL
same,Activity,Splenocyte [2],4.62 pg/mL
same,Activity,Splenocyte [3],5.29 pg/mL
same,Activity,Splenocyte [4],19.26 pg/mL
same,Activity,Splenocyte [5],25.32 pg/mL
same,Activity,Splenocyte [6],41.34 pg/mL
C=C(CO)[C@@H]1CC[C@]2(C(=O)O[C@H]3O[C@@H](CO[C@H]4O[C@@H](CO)[C@H](O[C@H]5O[C@@H](C)[C@H](O)[C@@H](O)[C@H]5O)[C@@H](O)[C@@H]4O)[C@H](O)[C@@H](O)[C@@H]3O)CC[C@]3(C)[C@H](CC[C@@H]4[C@@]5(C)CC[C@@H](O)[C@@](C)(C(=O)O)[C@@H]5CC[C@]43C)[C@@H]12 [ACANKOREOSIDE F],Activity,Splenocyte [1],3.3 pg/mL
same,Activity,Splenocyte [2],4 pg/mL
same,Activity,Splenocyte [3],4.2 pg/mL
same,Activity,Splenocyte [4],16.09 pg/mL
same,Activity,Splenocyte [5],23.47 pg/mL
same,Activity,Splenocyte [6],27.57 pg/mL
C=C(CO)[C@@H]1CC[C@]2(C(=O)O[C@H]3O[C@@H](CO[C@H]4O[C@@H](CO)[C@H](O[C@H]5O[C@@H](C)[C@H](O)[C@@H](O)[C@H]5O)[C@@H](O)[C@@H]4O)[C@H](O)[C@@H](O)[C@@H]3O)CC[C@]3(C)[C@H](C[C@@H](O)[C@@H]4[C@@]5(C)CC[C@@H](O)[C@@](C)(C=O)[C@@H]5CC[C@]43C)[C@@H]12 [ACANKOREOSIDE I],Activity,Splenocyte [1],1.25 pg/mL
same,Activity,Splenocyte [2],4.18 pg/mL
same,Activity,Splenocyte [3],2.59 pg/mL
same,Activity,Splenocyte [4],10.07 pg/mL
same,Activity,Splenocyte [5],12.91 pg/mL
same,Activity,Splenocyte [6],14.76 pg/mL
C[C@@H]1O[C@H](O[C@@H]2[C@@H](O)[C@H](O)[C@@H](OC[C@@H]3O[C@H](OC(=O)[C@]45CC[C@@H]([C@](C)(O)CO)[C@@H]4[C@H]4CC[C@@H]6[C@@]7(C)CC[C@@H](O)[C@@](C)(C(=O)O)[C@@H]7CC[C@@]6(C)[C@]4(C)CC5)[C@@H](O)[C@H](O)[C@H]3O)O[C@H]2CO)[C@H](O)[C@H](O)[C@H]1O [ACANKOREOSIDE K],Activity,Splenocyte [1],2.78 pg/mL
same,Activity,Splenocyte [2],3.2 pg/mL
same,Activity,Splenocyte [3],3.66 pg/mL
same,Activity,Splenocyte [4],16.69 pg/mL
same,Activity,Splenocyte [5],20.24 pg/mL
same,Activity,Splenocyte [6],21.57 pg/mL
COC(OC)[C@@H](C)[C@@H]1CC[C@]2(C(=O)O[C@H]3O[C@@H](CO[C@H]4O[C@@H](CO)[C@H](O[C@H]5O[C@@H](C)[C@H](O)[C@@H](O)[C@H]5O)[C@@H](O)[C@@H]4O)[C@H](O)[C@@H](O)[C@@H]3O)CC[C@]3(C)[C@H](CC[C@@H]4[C@@]5(C)CC[C@@H](O)[C@@](C)(C(=O)O)[C@@H]5CC[C@]43C)[C@@H]12 [ACANKOREOSIDE L],Activity,Splenocyte [1],3.53 pg/mL
same,Activity,Splenocyte [2],3.71 pg/mL
same,Activity,Splenocyte [3],6.07 pg/mL
same,Activity,Splenocyte [4],20.68 pg/mL
same,Activity,Splenocyte [5],45.06 pg/mL
same,Activity,Splenocyte [6],74.47 pg/mL
C=C(CO)[C@@H]1CC[C@]2(C(=O)O[C@H]3O[C@@H](CO[C@H]4O[C@@H](CO)[C@H](O[C@H]5O[C@@H](C)[C@H](O)[C@@H](O)[C@H]5O)[C@@H](O)[C@@H]4O)[C@H](O)[C@@H](O)[C@@H]3O)CC[C@]3(C)[C@H](C[C@@H](O)[C@@H]4[C@@]5(C)CC[C@@H](O)[C@@](C)(C(=O)O)[C@@H]5CC[C@]43C)[C@@H]12 [ACANKOREOSIDE M],Activity,Splenocyte [1],1.57 pg/mL
same,Activity,Splenocyte [2],2.45 pg/mL
same,Activity,Splenocyte [3],2.48 pg/mL
same,Activity,Splenocyte [4],15.27 pg/mL
same,Activity,Splenocyte [5],16.92 pg/mL
same,Activity,Splenocyte [6],17.26 pg/mL
C=C(CO)[C@@H]1CC[C@]2(C(=O)O[C@H]3O[C@@H](CO[C@H]4O[C@@H](CO)[C@H](O[C@H]5O[C@@H](C)[C@H](O)[C@@H](O)[C@H]5O)[C@@H](O)[C@@H]4O)[C@H](O)[C@@H](O)[C@@H]3O)CC[C@]3(C)[C@H](C[C@@H](O)[C@@H]4[C@@]5(C)CC[C@@H](O[C@@H]6O[C@H](CO)[C@@H](O)[C@H](O)[C@H]6O)C(C)(C)[C@@H]5CC[C@]43C)[C@@H]12 [ACANKOREOSIDE N],Activity,Splenocyte [1],1.5 pg/mL
same,Activity,Splenocyte [2],1.55 pg/mL
same,Activity,Splenocyte [3],1.92 pg/mL
same,Activity,Splenocyte [4],17.11 pg/mL
same,Activity,Splenocyte [5],13.66 pg/mL
same,Activity,Splenocyte [6],19.06 pg/mL
CC(C)[C@]1(O)CC[C@]2(C(=O)O[C@H]3O[C@@H](CO[C@H]4O[C@@H](CO)[C@H](O[C@H]5O[C@@H](C)[C@H](O)[C@@H](O)[C@H]5O)[C@@H](O)[C@@H]4O)[C@H](O)[C@@H](O)[C@@H]3O)CC[C@]3(C)[C@H](CC[C@@H]4[C@@]5(C)CC[C@@H](O)[C@@](C)(C(=O)O)[C@@H]5CC[C@]43C)[C@H]21 [ACANKOREOSIDE O],Activity,Splenocyte [1],1.81 pg/mL
same,Activity,Splenocyte [2],1.68 pg/mL
same,Activity,Splenocyte [3],2.44 pg/mL
same,Activity,Splenocyte [4],13.89 pg/mL
same,Activity,Splenocyte [5],11.82 pg/mL
same,Activity,Splenocyte [6],16.3 pg/mL
CC(=O)[C@@H]1CC[C@]2(C(=O)O[C@H]3O[C@@H](CO[C@H]4O[C@@H](CO)[C@H](O[C@H]5O[C@@H](C)[C@H](O)[C@@H](O)[C@H]5O)[C@@H](O)[C@@H]4O)[C@H](O)[C@@H](O)[C@@H]3O)CC[C@]3(C)[C@H](CC[C@@H]4[C@@]5(C)CC[C@@H](O)[C@@](C)(C(=O)O)[C@@H]5CC[C@]43C)[C@@H]12 [ACANKOREOSIDES J],Activity,Splenocyte [1],2.75 pg/mL
same,Activity,Splenocyte [2],3.78 pg/mL
same,Activity,Splenocyte [3],4.36 pg/mL
same,Activity,Splenocyte [4],15.78 pg/mL
same,Activity,Splenocyte [5],16.14 pg/mL
same,Activity,Splenocyte [6],28.27 pg/mL
C=C(C)[C@@H]1CC[C@]2(C(=O)O[C@@H]3O[C@H](CO[C@@H]4O[C@H](CO)[C@@H](O[C@H]5O[C@@H](C)[C@H](O)[C@@H](O)[C@H]5O)[C@H](O)[C@H]4O)[C@@H](O)[C@H](O)[C@H]3O)CC[C@]3(C)[C@H](C[C@@H](O)[C@@H]4[C@@]5(C)CC[C@@H](O)C(C)(C)[C@@H]5CC[C@]43C)C12 (stereo partly specified) [ACANTRIFOSIDE A],Activity,Splenocyte [1],4.55 pg/mL
same,Activity,Splenocyte [2],5.23 pg/mL
same,Activity,Splenocyte [3],5.41 pg/mL
same,Activity,Splenocyte [4],20.07 pg/mL
same,Activity,Splenocyte [5],25.57 pg/mL
same,Activity,Splenocyte [6],50.66 pg/mL
